Data as given in EP0452101B1, “Spiro bridged and unbridged heterocyclic compounds” (ISRAEL INSTITUTE FOR BIOLOGICAL RESEARCH, priority 1990, dated 1991).
Where “and” joins values, the source holds several entries; their conditions need not be identical. Identical values can stand only once. Like-named read-outs stand apart in the source and are kept apart here.

Tests used:
muscarinic receptors = assay: (-)3H-QNB binding to rat cerebral cortex homogenates with and without Cu++ treatment; details: for Ki: read-out: KL
M2 muscarinic receptors = target: T1, M2 muscarinic receptors (Rattus norvegicus, UniProt P10980); assay: Displacement of 3H-QNB from rat cerebellum, 50 mM phosphate buffer; assay type: binding
T1 construct: displacing from rat brain homogenates, cerebellum or frontal cortex; from tissue; host or cells: rat cerebellum homogenates
T1 sequence (P10980 1-466): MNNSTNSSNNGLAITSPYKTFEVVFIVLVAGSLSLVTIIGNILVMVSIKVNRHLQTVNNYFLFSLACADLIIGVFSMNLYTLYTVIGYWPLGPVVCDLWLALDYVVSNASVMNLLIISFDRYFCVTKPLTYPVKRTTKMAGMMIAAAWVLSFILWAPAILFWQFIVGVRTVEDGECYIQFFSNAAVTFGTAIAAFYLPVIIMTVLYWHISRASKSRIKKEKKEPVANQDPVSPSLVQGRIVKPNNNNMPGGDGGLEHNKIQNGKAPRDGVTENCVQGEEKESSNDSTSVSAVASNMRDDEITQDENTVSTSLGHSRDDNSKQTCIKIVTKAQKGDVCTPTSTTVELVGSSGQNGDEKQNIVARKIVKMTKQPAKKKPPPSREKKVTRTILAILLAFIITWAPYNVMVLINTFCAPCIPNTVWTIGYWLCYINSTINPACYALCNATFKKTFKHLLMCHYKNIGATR

M1 muscarinic receptor [1] = target: T2, M1 muscarinic receptor (Rattus norvegicus, UniProt P08482); assay: Displacement of 3H-QNB from rat cerebral cortex, 50 mM phosphate buffer; assay type: binding; details: for RATIOS c:a: KH2 cerebellum : KH1 cortex (3H-QNB); for % H1 / Ki: cortex, Table 5; for Ki: read-out: 3H-QNB-Binding KH1 (a)
T2 sequence (P08482 1-460): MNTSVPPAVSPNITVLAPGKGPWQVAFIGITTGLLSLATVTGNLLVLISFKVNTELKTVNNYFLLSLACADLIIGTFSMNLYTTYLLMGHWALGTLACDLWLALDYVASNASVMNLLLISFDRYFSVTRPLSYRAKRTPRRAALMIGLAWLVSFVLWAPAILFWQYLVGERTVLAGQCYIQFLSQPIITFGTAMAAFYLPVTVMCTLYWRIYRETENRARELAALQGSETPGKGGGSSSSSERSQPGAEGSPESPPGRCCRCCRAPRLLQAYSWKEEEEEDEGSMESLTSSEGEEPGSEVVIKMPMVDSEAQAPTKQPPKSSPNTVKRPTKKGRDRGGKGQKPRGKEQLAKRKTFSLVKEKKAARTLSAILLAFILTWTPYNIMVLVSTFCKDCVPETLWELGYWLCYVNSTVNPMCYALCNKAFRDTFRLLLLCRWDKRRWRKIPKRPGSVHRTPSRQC

M1 muscarinic receptor [2] = target: T2, M1 muscarinic receptor; assay: Displacement of 3H-PZ from rat cerebral cortex, 10 mM phosphate buffer; assay type: binding; parameters: from tissue; host or cells: rat cerebral cortex homogenates; details: for RATIOS c:a: KH cerebellum (3H-QNB) : KH cortex (3H-PZ)
[3] = test system: Male white mice of the CD-1 strain; assay: Pharmacodynamic profile and general toxicity, Part B (signs, mortality, LD50); assay type: in vivo; parameters: key to Altered spontaneous motor activity (Mot): increased (inc); decreased (dec); key to Piloerection (Pil) / Hypothermia (Hyp) / Salivation (Sal) / Lacrimation (Lac) / Diarrhea (Dia) / Mydriasis (Myd): sli = slight; mod = moderate; sev = severe; details: Table 10
From the text: Male white mice of the CD-1 strain (Charles River, UK), within the body weight range of 18-26 g, were used throughout this study, carried out on AF123, AF125 and AF125(N).
Furthermore, these initial trials clearly established that the major signs of reactions to treatment consisted primarily of signs characteristic for potential cholinomimetic activity of the test material, such as tremors, salivation, lacrimation, diarrhea, analgesia, hypothermia and vasodilation. […]

scopolamine-treated rats = assay: Passive avoidance (PA) in scopolamine-treated rats; assay type: in vivo, Sprague-Dawley rats
Experimental: Naive male Sprague-Dawley rats, three months old (obtained from Charles River Breeding, U.K.), were used (weighing 200-300 g.). The passive avoidance (PA) test is according to Fisher et al, Neurosci. Lett. 102: 325 (1989), except that in these rats amnesia was induced by scopolamine.
Eight groups of 17-20 naive rats were used. Each group was divided into two subgroups of 7-10 rats each: subgroup 1 was injected with scopolamine HBr (0.5 mg./kg. in saline, s.c., 15 min. before the shock) and subgroup 2 was injected with saline (1 ml./kg., s.c., 15 min. before the shock). Seven of the groups were treated within one minute after the shock with one of the following doses of the tested compound: 0.1, 0.5, 1, 3, 5, 8, 10 mg./kg. (in saline, i.p.) and one group received saline (1 ml./kg., i.p.).
Eight groups of 18-20 naive rats each were used. Each group was divided into two subgroups of 9-10 rats each: subgroup 1 was injected with scopolamine HBr (0.5 mg./kg. in saline, s.c., 15 min. before the shock) and subgroup 2 was injected with saline (1 ml./kg., s.c., 15 min. before the shock). Seven of the groups were treated, within one minute after the shock, with one of the following doses of AF125(N): 0.1, 0.5, 1, 3, 5, 8 or 10 mg./kg. (in saline, i.p.) and one group received saline (1 ml./kg., i.p.).

[4] = with Cu++ pretreatment (100 µM, 30 minutes)
[5] = cortex, Table 4, read-out: 3H-PZ-Binding KH (a)
[6] = 20 mg/kg i.v., animals affected/treated
[7] = post-shock AF125(N) 0.1 mg/kg i.p., pre-shock Scopolamine
[8] = post-shock AF125(N) 0.1 mg/kg i.p., pre-shock saline
[9] = post-shock AF125(N) 0.5 mg/kg i.p., pre-shock Scopolamine, 0.5 mg/kg
[10] = post-shock AF125(N) 0.5 mg/kg i.p., pre-shock saline
[11] = post-shock AF125(N) 1.0 mg/kg i.p., pre-shock Scopolamine
[12] = post-shock AF125(N) 1.0 mg/kg i.p., pre-shock saline
[13] = post-shock AF125(N) 3.0 mg/kg i.p., pre-shock Scopolamine
[14] = post-shock AF125(N) 3.0 mg/kg i.p., pre-shock saline
[15] = post-shock AF125(N) 5.0 mg/kg i.p., pre-shock Scopolamine
[16] = post-shock AF125(N) 5.0 mg/kg i.p., pre-shock saline, 5 mg/kg
[17] = post-shock AF125(N) 8.0 mg/kg i.p., pre-shock Scopolamine
[18] = post-shock AF125(N) 8.0 mg/kg i.p., pre-shock saline
[19] = post-shock AF125(N) 10.0 mg/kg i.p., pre-shock Scopolamine
[20] = post-shock AF125(N) 10.0 mg/kg i.p., pre-shock saline

How did the “%H (% of high affinity state)” value (muscarinic receptors) turn out when CN1[C@@H]2CC[C@H]1C[C@@H](OC(=O)C(CO)c1ccccc1)C2 (some centres unmarked) [Atropine] was run?
Its value is 0%.

Which “%H (% of high affinity state)” value (muscarinic receptors; [4]) does the source give for CN1CCN(CC(=O)N2c3ccccc3C(=O)Nc3cccnc32)CC1 [Pirenzepine] here?
Its value is 64±6%.

What about the “%H (% of high affinity state)” value (muscarinic receptors; without pretreatment) of the same molecule?
Its value is 72±3%.

Which “% H” value (M2 muscarinic receptors; cerebellum, Table 4) does the source give for c1ccc(C2=NCC3(CN4CCC3CC4)O2)cc1 (centres unmarked) [AF125(Ph), 2-Phenyl-spiro(1,3-oxazoline-5,3')quinuclidine] here?
The value was 100%.

What about the Ki (M2 muscarinic receptors; cerebellum, Table 4, read-out: 3H-QNB-Binding KH (c)) of the same molecule?
The Ki was 1370 nM.

What about the “% H2” value (M2 muscarinic receptors; cerebellum, Table 5) of the same molecule?
Its value is 100%.

And the Ki (M2 muscarinic receptors; cerebellum, Table 5, read-out: 3H-QNB-Binding KH2 (c))?
Its Ki is 1370 nM.

And the “RATIOS c:a” value (M1 muscarinic receptor [1])?
Its value is 1.7.

And the “% H1” value (M1 muscarinic receptor [1])?
Its value is 100%.

What about the Ki (M1 muscarinic receptor [1]) of the same molecule?
Its Ki is 800 nM.

And the “RATIOS c:a” value (M1 muscarinic receptor [2])?
Its value is 17.1.

And the “% H” value (M1 muscarinic receptor [2]; cortex, Table 4)?
The value was 100%.

And the Ki (M1 muscarinic receptor [2]; [5])?
The Ki was 80 nM.

Which “%H (% of high affinity state)” value (muscarinic receptors; [4]) does the source give for CN1[C@@H]2C[C@@H](OC(=O)[C@H](CO)c3ccccc3)C[C@H]1[C@@H]1O[C@@H]12 [Scopolamine] here?
The value was 0%.

And the Ki (muscarinic receptors; with Cu++ pretreatment)?
Its Ki is 0.1 ± 0.005 nM.

What about the “%H (% of high affinity state)” value (muscarinic receptors; without pretreatment) of the same molecule?
The value was 0%.

And the Ki (muscarinic receptors; without pretreatment)?
Its Ki is 0.09 ± 0.004 nM.

What does the source list for NC1=NCC2(CN3CCC2CC3)O1 (centres unmarked) [AF125(N), 2-Amino-spiro(1,3-oxazoline-5,3')quinuclidine]?
% H (M2 muscarinic receptors; cerebellum, Table 4): 100%; % H2 (M2 muscarinic receptors; cerebellum, Table 5): 100%; Ki (M2 muscarinic receptors; read-out: 3H-QNB-Binding KH2 (c)): 50000 nM; Ki (M2 muscarinic receptors; read-out: 3H-QNB-Binding KH (c)): 5000 nM; RATIOS c:a (M1 muscarinic receptor [1]): 0.4; % H1 (M1 muscarinic receptor [1]): 100%; Ki (M1 muscarinic receptor [1]): 112000 nM; Altered spontaneous motor activity (Mot) ([3]; 20 mg/kg i.v.): dec; Mortality no. ([3]; 20 mg/kg i.v.): 0/5; Mydriasis (Myd) ([3]; 20 mg/kg i.v.): sli; Salivation (Sal) ([3]; 20 mg/kg i.v.): sli; Respiratory distress (Res) [3, 6]: 4/5; Tremors (Tre) [3, 6]: 3/5; Mortality no. ([3]; 50 mg/kg i.v.): 5/5; Mortality time ([3]; 50 mg/kg i.v.): immed; Mortality no. ([3]; 100 mg/kg i.v.): 5/5; Mortality time ([3]; 100 mg/kg i.v.): immed; Altered spontaneous motor activity (Mot) ([3]; 200 mg/kg p.os): inc; Mortality no. ([3]; 200 mg/kg p.os): 0/5; Mydriasis (Myd) ([3]; 200 mg/kg p.os): sli; doses with significant enhancing effect on retention latency (scopolamine-treated rats; i.p., scopolamine-treated rats): 0.5 mg/kg; Initial latency, Mean (scopolamine-treated rats; [7]): 22.3 s; Retention latency, Mean (scopolamine-treated rats; [7]): 199.7 s; Initial latency, Mean (scopolamine-treated rats; [8]): 21.0 s; Retention latency, Mean (scopolamine-treated rats; [8]): 554.7 s; Initial latency, Mean (scopolamine-treated rats; [9]): 62.9 ± 17.4 s and 62.9 s; Retention latency, Mean (scopolamine-treated rats; [9]): 332.7±80.9 sec. and 332.7* sec.; Initial latency, Mean (scopolamine-treated rats; [10]): 28.1 s; Retention latency, Mean (scopolamine-treated rats; [10]): 600.0 s; Initial latency, Mean (scopolamine-treated rats; [11]): 29.1 s; Retention latency, Mean (scopolamine-treated rats; [11]): 114.8 s; Initial latency, Mean (scopolamine-treated rats; [12]): 22.0 s; Retention latency, Mean (scopolamine-treated rats; [12]): 448.9 s; Initial latency, Mean (scopolamine-treated rats; [13]): 23.1 s; Retention latency, Mean (scopolamine-treated rats; [13]): 243.4 s; Initial latency, Mean (scopolamine-treated rats; [14]): 44.1 s; Retention latency, Mean (scopolamine-treated rats; [14]): 500.1 s; Initial latency, Mean (scopolamine-treated rats; [15]): 24.6 s; Retention latency, Mean (scopolamine-treated rats; [15]): 181.6 s; Initial latency, Mean (scopolamine-treated rats; [16]): 65.1 ± 18.5 s and 65.1 s; Retention latency, Mean (scopolamine-treated rats; [16]): 290.3 ± 52.1 s and 290.3 s; Initial latency, Mean (scopolamine-treated rats; [17]): 16.3 s; Retention latency, Mean (scopolamine-treated rats; [17]): 210.2 s; Initial latency, Mean (scopolamine-treated rats; [18]): 19.3 s; Retention latency, Mean (scopolamine-treated rats; [18]): 552.0 s; Initial latency, Mean (scopolamine-treated rats; [19]): 21.5 s; Retention latency, Mean (scopolamine-treated rats; [19]): 129.7 s; Initial latency, Mean (scopolamine-treated rats; [20]): 4.9 s; Retention latency, Mean (scopolamine-treated rats; [20]): 417.5 s; RATIOS c:a (M1 muscarinic receptor [2]): 83; % H (M1 muscarinic receptor [2]; cortex, Table 4): 28%; %L (M1 muscarinic receptor [2]; cortex, Table 4): 72%; Ki (M1 muscarinic receptor [2]; [5]): 600 nM; Ki (M1 muscarinic receptor [2]; cortex, Table 4, read-out: 3H-PZ-Binding KL (b)): 3000 nM
